Experimental data reported in patent US8778400B2, “Nanoparticle-stabilized capsule formulation for treatment of inflammation” (University of South Australia, priority 2008, dated 2014).
≈ marks a conversion by molar mass, not a printed value.

Experiments:
[1] = In vitro dissolution of indomethacin under sink conditions (USP paddle); assay type: physicochemical; details: 25 mg indomethacin, phosphate buffer pH 7.2, sink conditions
Description: DSC was performed using TA Instruments Q100 differential scanning calorimeter. A 15 mg sample was heated in an aluminium pan at a rate of […] over a temperature range of 25-200° C., under a flow of dry nitrogen gas (80 ml/min). Instrument calibration was undertaken using an indium standard. Powder XRD patterns were obtained using Philips (PW 1050/25) X-ray diffractometer with CoKα radiation (45 kV, 35 mA). The samples were scanned between 10-50° (2θ) at a rate of 1.0°/min. […] The HPLC system (Hewlett Packard 1100) consisted of a series […] auto sampler and G1314A variable UV detector (Shimadzu Corporation). Separation was achieved using a LiChrospher 100 RP-18 analytical column (5 μm, 100 mm×4.6 mm i.d.). […] All chromatographic separations were performed at room temperature at a flow rate of 1 mL/min. The column eluent was monitored at a wavelength of 320 nm. […] The dissolution tests under sink conditions were performed using a USP paddle system (Vankel) and kept at a controlled 37° C. […] The paddle was rotated at 50 rpm. Samples (5 mL) were taken every 15 minutes for 3 h. […] The samples were measured using HPLC. […] With the conventional assumption that the rate and extent of drug dissolution directly reflects the concentration of readily absorbable drug in the intestinal lumen, it is proposed that capsules have the potential to enhance the oral absorption process. […]

[2] = Equilibrium solubility of celecoxib in phosphate buffer containing SLS; assay type: physicochemical; details: for folds of saturation volume (FSV): 900 ml media for 2 mg celecoxib; for solubility thermodynamic at 48 h: phosphate buffer, 37 °C, thermodynamic from solid
Description: The mixture was shaken in a thermostated mixer chamber (37° C.) for 48 h. Equilibrated samples were centrifuged at 9,400 g for 15 min to remove undissolved materials. The amount of celecoxib dissolved was assayed using the HPLC method outlined above.

[3] = In vitro dissolution study of celecoxib formulations (USP type II paddle); assay type: physicochemical; details: phosphate buffer, 0.5% SLS, 37° C.
Description: The in vitro dissolution study was performed in 900 ml of phosphate buffer (0.05 M, pH 7.2) containing 0, 0.05, and 0.5% (w/v) SLS, using USP 23 type II apparatus (paddle method) operating at 75±0.02 rpm. Each sample, containing ˜2 mg of celecoxib (equivalent to the amount used in the in vivo studies), was added into the dissolution medium maintained at 37±0.5° C. Aliquots of 3 ml were drawn at fixed time points and replaced with an equal volume of fresh dissolution medium. The drawn samples were centrifuged at 9,400 g for 15 min to remove undissolved materials. The supernatant was subjected to another cycle of centrifugation under the same conditions. An aliquot of 100 μl was taken from the middle portion of each centrifuged samples before diluted 2-fold with acetonitrile. […] The amount of celecoxib dissolved in the dissolution media was analysed by HPLC as described previously.
SLS was employed as a wetting and solubilising agent in the dissolution medium for simulating the sink effect in the gastrointestinal tract. The dissolution profiles of celecoxib from various formulations are illustrated in FIG. 3. […] The influence of silica nanoparticle layers of different hydrophobicity in controlling drug release from homogenised liquid emulsions has been previously investigated (Simovic et al., 2007). Here, the dissolution profiles of celecoxib from spray-dried capsules formulated with hydrophilic silica were obtained. Two dissolution parameters were evaluated from the study employing sink conditions: the dissolution efficiency (% DE), and the time to achieve 50% of drug dissolution (t50%) (Table 2). % DE is the area under the dissolution curve between two specified time points expressed as a percentage of the area of the rectangle described by 100% dissolution in the same time intervals, which can be calculated using Eq. (II): […]

[4] = Distribution ratio of celecoxib in Miglyol oil and phosphate buffer; assay type: physicochemical; details: Miglyol oil and blank phosphate buffer
[5] = Solubility of celecoxib in Miglyol oil; assay type: physicochemical; details: oil or lipid
[6] = cited from earlier work
[7] = after oral delivery; cited from earlier work
[8] = system: prostaglandin E2; details: reported for humans, based on inhibitory effect on prostaglandin E2; cited from earlier work

Row | t50% (time taken to achieve 50% of drug dissolution) [1] | folds of saturation volume (FSV) ([2]; 0% SLS) | folds of saturation volume (FSV) ([2]; 0.05% SLS) | folds of saturation volume (FSV) ([2]; 0.25% SLS) | folds of saturation volume (FSV) ([2]; 0.5% SLS) | folds of saturation volume (FSV) ([2]; 1.0% SLS) | solubility thermodynamic at 48 h ([2]; pH 7.2, aqueous buffer, phosphate buffer pH 7.2, 0% SLS) | solubility thermodynamic at 48 h ([2]; pH 7.2, aqueous with cosolvent or surfactant or cyclodextrin, 0.05% SLS) | solubility thermodynamic at 48 h ([2]; pH 7.2, aqueous with cosolvent or surfactant or cyclodextrin, 0.25% SLS) | solubility thermodynamic at 48 h ([2]; pH 7.2, aqueous with cosolvent or surfactant or cyclodextrin, 0.5% SLS) | solubility thermodynamic at 48 h ([2]; pH 7.2, aqueous with cosolvent or surfactant or cyclodextrin, 1.0% SLS) | t50% (time to achieve 50% of drug dissolution) [3] | Dissolution efficiency (% DE) ([3]; t = 5 min) | Dissolution efficiency (% DE) ([3]; t = 15 min) | Dissolution efficiency (% DE) ([3]; t = 180 min) | distribution ratio (log D) [4] | solubility [5] | SMILES | log P [6] | Tmax [7] | minimum effective pain-relieving plasma concentration [8]
1 | 58.8 ± 0.5 min | – | – | – | – | – | – | – | – | – | – | – | – | – | – | – | – | COc1ccc2c(c1)c(CC(=O)O)c(C)n2C(=O)c1ccc(Cl)cc1 [Indomethacin, 1-(4-chlorobenzoyl)-5-methoxy-2-methyl-1-H-indole-3-acetic acid] | – | – | –
2 | – | 0.9 | 1.0 | 1.4 | 3.6 | 53.6 | 2.11 ± 0.01 µg/mL (≈ 5.53 µM) | 2.33 ± 0.15 µg/mL (≈ 6.11 µM) | 3.2 ± 0.16 µg/mL (≈ 8.39 µM) | 8 ± 0.39 µg/mL (≈ 21 µM) | 119 ± 29 µg/mL (≈ 312 µM) | 144.8 min | 8.9 ± 1% | 24.3 ± 5% | 48.9 ± 3% | 3.7 | ~10000 µg/mL (≈ 26200 µM) | Cc1ccc(-c2cc(C(F)(F)F)nn2-c2ccc(S(N)(=O)=O)cc2)cc1 [celecoxib, 4-[5-(4-methylphenyl)-3-(trifluoromethyl)pyrazol-1-yl]benzenesulfonamide] | ≈ 3.5 | approximately three | ~155 ng/mL
